From ChEMBL document CHEMBL1132249, “Design and synthesis of novel quinoxaline-2,3-dione AMPA/GlyN receptor antagonists: amino acid derivatives” (J Med Chem, 1999)
In brackets after ≈: the same amount, converted by molar mass.

What was measured:
[1] = Solubility was measured in 50 mM phosphate buffer at pH 7.4; assay type: physicochemical
[2] = target: Glutamate receptor ionotropic, AMPA (Rattus norvegicus, UniProt P19490+P19491+P19492+P19493); assay: In vitro binding affinity against Ionotropic glutamate receptor AMPA binding site using [3H]- AMPA as radioligand on rat cortical synaptosomal membranes
[3] = In vitro binding affinity against glycine receptor binding site using [3H]- Glycine as radioligand on rat cortical synaptosomal membranes
Mus musculus = species on record: Mus musculus; assay: Anticonvulsant activity in mice was determined from maximal electroshock assay; assay type: functional

| SMILES | solubility [1] [µg/mL] | IC50 [2] [nM] | IC50 [3] [nM] | ED50 (Mus musculus) [mg/kg] |
| --- | --- | --- | --- | --- |
| CCc1c(Br)cc2nc(O)c(O)nc2c1CN(C)CC(=O)O | 140 (≈ 378 µM) | 2320 | – | – |
| CCOC(=O)CN(C)Cc1c(CC)c([N+](=O)[O-])cc2nc(O)c(O)nc12 | 150 (≈ 412 µM) | 1590 | > 10000 | – |
| CCc1ccc2nc(O)c(O)nc2c1CN(C)CC(=O)O | – | > 10000 | > 10000 | – |
| C=Cc1c(Br)cc2nc(O)c(O)nc2c1CN(C)CC(=O)O | 170 (≈ 462 µM) | 1180 | – | – |
| CN1CCc2c([N+](=O)[O-])cc3nc(O)c(O)nc3c2C1 | 8.6 (≈ 31.1 µM) | – | 370 | 0.44 |
| CCc1c([N+](=O)[O-])cc2nc(O)c(O)nc2c1CN(C)CC(=O)O | 420 (≈ 1250 µM) | 140 | 470 | – |
